{"source": "ChEMBL document CHEMBL4665702", "about": "“Cacalol Acetate, a Sesquiterpene from Psacalium decompositum, Exerts an Anti-inflammatory Effect through LPS/NF-KB Signaling in Raw 264.7 Macrophages” (2020)", "key": {"[1]": {"system": "Mus musculus", "test": "Anti-inflammatory activity in TPA-induced CD-1 mouse ear edema model assessed as ear weight at 1 mg", "type": "functional"}, "[2]": {"system": "Mus musculus", "test": "Anti-inflammatory activity in TPA-induced CD-1 mouse ear edema model assessed as inhibition of ear edema at 1 mg relative to control", "type": "functional"}, "[3]": {"system": "RAW264.7", "test": "Anti-inflammatory activity in mouse RAW264.7 cells assessed as inhibition of LPS-induced IL-6 production at 50 to 100 uM preincubated for 1 hr followed by LPS administration measured after 3 hrs by ELISA", "type": "functional, cell-based", "conditions": "dose microM 50-100, time 4.0 hrs"}, "[4]": {"system": "RAW264.7", "test": "Anti-inflammatory activity in mouse RAW264.7 cells assessed as inhibition of LPS-induced IL-1beta production at 50 to 100 uM preincubated for 1 hr followed by LPS administration measured after 3 hrs by ELISA", "type": "functional, cell-based", "conditions": "dose microM 50-100, time 4.0 hrs"}, "[5]": {"system": "RAW264.7", "test": "Anti-inflammatory activity in mouse RAW264.7 cells assessed as inhibition of LPS-induced IL-6 mRNA expression at 50 to 100 uM preincubated for 1 hr followed by LPS administration measured after 3 hrs by RT-PCR analysis", "type": "functional, cell-based", "conditions": "dose microM 50-100, time 4.0 hrs"}, "[6]": {"system": "RAW264.7", "test": "Anti-inflammatory activity in mouse RAW264.7 cells assessed as inhibition of LPS-induced TNF-alpha mRNA expression at 50 to 100 uM preincubated for 1 hr followed by LPS administration measured after 3 hrs by RT-PCR analysis", "type": "functional, cell-based", "conditions": "dose microM 50-100, time 4.0 hrs"}, "[7]": {"biological_target": "T1, Inhibitor of nuclear factor kappa-B kinase subunit beta (Mus musculus) (UniProt O88351)", "T1 sequence (whole entry)": "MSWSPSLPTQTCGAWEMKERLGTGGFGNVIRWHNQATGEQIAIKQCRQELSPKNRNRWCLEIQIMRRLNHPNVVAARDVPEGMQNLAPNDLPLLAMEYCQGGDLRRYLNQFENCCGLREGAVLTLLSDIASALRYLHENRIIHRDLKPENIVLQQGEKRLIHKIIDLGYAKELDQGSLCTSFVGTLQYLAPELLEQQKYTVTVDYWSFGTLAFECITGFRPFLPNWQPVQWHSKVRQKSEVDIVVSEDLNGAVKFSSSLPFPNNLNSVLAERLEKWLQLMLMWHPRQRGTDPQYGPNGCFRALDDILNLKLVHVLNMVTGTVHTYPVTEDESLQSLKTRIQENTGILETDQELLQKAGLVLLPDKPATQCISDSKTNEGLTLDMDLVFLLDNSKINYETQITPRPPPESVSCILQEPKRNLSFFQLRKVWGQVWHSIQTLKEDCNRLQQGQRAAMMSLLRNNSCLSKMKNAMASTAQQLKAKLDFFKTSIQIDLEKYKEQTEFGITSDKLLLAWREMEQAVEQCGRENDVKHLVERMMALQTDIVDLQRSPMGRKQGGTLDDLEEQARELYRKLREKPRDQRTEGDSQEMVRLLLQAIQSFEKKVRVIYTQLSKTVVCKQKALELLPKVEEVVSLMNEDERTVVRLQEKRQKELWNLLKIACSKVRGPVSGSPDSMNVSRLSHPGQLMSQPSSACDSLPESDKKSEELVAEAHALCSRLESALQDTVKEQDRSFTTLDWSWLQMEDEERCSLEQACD", "test": "Inhibition of IKK-beta phosphorylation at Ser176/177 residues in LPS-induced mouse RAW 264.7 cells at 50 to 100 uM preincubated for 1 hr followed by LPS administration measured after 25 mins by Western blot analysis", "conditions": "RAW264.7, dose microM 50-100, time 85.0 min"}, "[8]": {"system": "RAW264.7", "test": "Anti-inflammatory activity in mouse RAW264.7 cells assessed as inhibition of LPS-induced COX2 level at 50 to 100 uM preincubated for 90 mins followed by LPS administration measured after 3 hrs by fluorimetric analysis relative to control", "type": "functional", "conditions": "dose microM 50-100; time 270 min; 4.5 h"}, "[9]": {"system": "RAW264.7", "test": "Anti-inflammatory activity in mouse RAW264.7 cells assessed as inhibition of LPS-induced TNF-alpha production at 50 to 100 uM preincubated for 1 hr followed by LPS administration measured after 3 hrs by ELISA", "type": "functional, cell-based", "conditions": "dose microM 50-100, time 4.0 hrs"}, "[10]": {"system": "RAW264.7", "test": "Anti-inflammatory activity in mouse RAW264.7 cells assessed as inhibition of LPS-induced COX2 protein level at 50 to 100 uM preincubated for 90 mins followed by LPS administration measured after 3 hrs by RT-qPCR analysis relative to control", "type": "functional", "conditions": "dose microM 50-100; time 270 min; 4.5 h"}, "[11]": {"biological_target": "Transcription factor p65 (Mus musculus) (UniProt Q04207)", "test": "Inhibition of p65 phosphorylation at Ser536 residues in LPS-induced mouse RAW 264.7 cells at 100 uM preincubated for 1 hr followed by LPS administration measured after 25 mins by Western blot analysis relative to control", "conditions": "RAW264.7, time 85.0 min"}, "[12]": {"system": "RAW264.7", "test": "Anti-inflammatory activity in mouse RAW264.7 cells assessed as inhibition of LPS-induced COX2 mRNA expression at 50 to 100 uM preincubated for 90 mins followed by LPS administration measured after 3 hrs by RT-qPCR analysis", "type": "functional, cell-based", "conditions": "dose microM 50-100, time 270.0 min"}, "[13]": {"system": "RAW264.7", "test": "Inhibition of NFkappaB in mouse RAW 264.7 cells assessed as reduction in LPS-induced transcriptional activation at 50 uM preincubated for 1 hr followed by LPS administration measured after 25 mins by EMSA relative to control", "type": "cell-based", "conditions": "time 85.0 min"}, "[14]": {"system": "RAW264.7", "test": "Anti-inflammatory activity in mouse RAW264.7 cells assessed as inhibition of LPS-induced IL-1beta mRNA expression at 50 to 100 uM preincubated for 1 hr followed by LPS administration measured after 3 hrs by RT-PCR analysis", "type": "functional, cell-based", "conditions": "dose microM 50-100, time 4.0 hrs"}, "[15]": {"system": "RAW264.7", "test": "Inhibition of NFkappaB in mouse RAW 264.7 cells assessed as reduction in LPS-induced transcriptional activation at 100 uM preincubated for 1 hr followed by LPS administration measured after 25 mins by EMSA relative to control", "type": "cell-based", "conditions": "time 85.0 min"}, "[16]": {"system": "RAW264.7", "test": "Anti-inflammatory activity in mouse RAW264.7 cells assessed as inhibition of LPS-induced IL-6 mRNA expression at 10 uM preincubated for 1 hr followed by LPS administration measured after 3 hrs by RT-PCR analysis", "type": "functional, cell-based", "conditions": "time 4.0 hrs"}, "[17]": {"system": "RAW264.7", "test": "Anti-inflammatory activity in mouse RAW264.7 cells assessed as inhibition of LPS-induced IL-1beta production at 10 uM preincubated for 1 hr followed by LPS administration measured after 3 hrs by ELISA", "type": "functional, cell-based", "conditions": "time 4.0 hrs"}, "[18]": {"system": "RAW264.7", "test": "Anti-inflammatory activity in mouse RAW264.7 cells assessed as inhibition of LPS-induced TNF-alpha mRNA expression at 10 uM preincubated for 1 hr followed by LPS administration measured after 3 hrs by RT-PCR analysis", "type": "functional, cell-based", "conditions": "time 4.0 hrs"}, "[19]": {"system": "RAW264.7", "test": "Anti-inflammatory activity in mouse RAW264.7 cells assessed as inhibition of LPS-induced IL-6 production at 10 uM preincubated for 1 hr followed by LPS administration measured after 3 hrs by ELISA", "type": "functional, cell-based", "conditions": "time 4.0 hrs"}, "[20]": {"biological_target": "T1, Inhibitor of nuclear factor kappa-B kinase subunit beta (Mus musculus)", "test": "Inhibition of IKK-beta phosphorylation at Ser176/177 residues in LPS-induced mouse RAW 264.7 cells at 10 uM preincubated for 1 hr followed by LPS administration measured after 25 mins by Western blot analysis relative to control", "conditions": "RAW264.7, time 85.0 min"}, "[21]": {"system": "RAW264.7", "test": "Anti-inflammatory activity in mouse RAW264.7 cells assessed as inhibition of LPS-induced TNF-alpha production at 10 uM preincubated for 1 hr followed by LPS administration measured after 3 hrs by ELISA", "type": "functional, cell-based", "conditions": "time 4.0 hrs"}, "[22]": {"system": "RAW264.7", "test": "Anti-inflammatory activity in mouse RAW264.7 cells assessed as inhibition of LPS-induced IL-1beta mRNA expression at 10 uM preincubated for 1 hr followed by LPS administration measured after 3 hrs by RT-PCR analysis", "type": "functional, cell-based", "conditions": "time 4.0 hrs"}, "[23]": {"biological_target": "Transcription factor p65 (Mus musculus) (UniProt Q04207)", "test": "Inhibition of p65 phosphorylation at Ser536 residues in LPS-induced mouse RAW 264.7 cells at 10 uM preincubated for 1 hr followed by LPS administration measured after 25 mins by Western blot analysis relative to control", "conditions": "RAW264.7, dose 100.0 µM, time 85.0 min"}}, "note": "Activity calls are given as the source filed them. The calls are words filed in the database; no cut-off is given here."}
{"smiles": "COc1ccc2c(c1)c(CC(=O)O)c(C)n2C(=O)c1ccc(Cl)cc1", "note": "[INDOMETHACIN]", "values": [{"measurement": "Activity", "setting": "[1]", "value": 4.05, "unit": "mg"}, {"measurement": "inhibition (INH)", "setting": "[2]", "value": 78.6, "unit": "%"}]}
{"smiles": "CC(=O)Oc1c2c(c(C)c3c(C)coc13)[C@@H](C)CCC2", "values": [{"measurement": "inhibition", "setting": "[3]", "value": "Active"}, {"measurement": "inhibition", "setting": "[4]", "value": "Active"}, {"measurement": "inhibition", "setting": "[5]", "value": "Active"}, {"measurement": "inhibition", "setting": "[6]", "value": "Active"}, {"measurement": "Activity", "setting": "[1]", "value": 6.56, "unit": "mg"}, {"measurement": "inhibition", "setting": "[7]", "value": "inactive"}, {"measurement": "fold change (FC)", "setting": "[8]", "value": 2.5}, {"measurement": "inhibition", "setting": "[9]", "value": "Active"}, {"measurement": "fold change (FC)", "setting": "[10]", "value": 2}, {"measurement": "inhibition (INH)", "setting": "[2]", "value": 70.3, "unit": "%"}, {"measurement": "fold change (FC)", "setting": "[11]", "value": 0.2}, {"measurement": "inhibition", "setting": "[12]", "value": "Active"}, {"measurement": "fold change (FC)", "setting": "[13]", "value": 1.7}, {"measurement": "inhibition", "setting": "[14]", "value": "Active"}, {"measurement": "fold change (FC)", "setting": "[15]", "value": 2.1}]}
{"smiles": "CC(C)(C)c1ccc(S(=O)(=O)/C=C/C#N)cc1", "values": [{"measurement": "inhibition", "setting": "[16]", "value": "Active"}, {"measurement": "inhibition", "setting": "[17]", "value": "Active"}, {"measurement": "inhibition", "setting": "[18]", "value": "Active"}, {"measurement": "inhibition", "setting": "[19]", "value": "Active"}, {"measurement": "fold change (FC)", "setting": "[20]", "value": 1.5}, {"measurement": "inhibition", "setting": "[21]", "value": "Active"}, {"measurement": "inhibition", "setting": "[22]", "value": "Active"}, {"measurement": "fold change (FC)", "setting": "[23]", "value": 0.1}]}
{"smiles": "Cc1coc2c(O)c3c(c(C)c12)[C@@H](C)CCC3", "note": "[CACALOL]", "values": [{"measurement": "Activity", "setting": "[1]", "value": 8.55, "unit": "mg"}, {"measurement": "inhibition (INH)", "setting": "[2]", "value": 48.5, "unit": "%"}]}
